Measured values: ChEMBL document CHEMBL1949560, “Plasmodium berghei proteome changes in response to SSJ-183 treatment” (2011)
Calls of active or inactive are those of the source. The calls are words filed in the database; no cut-off is given here.

Tests used:
Plasmodium berghei [1] = assay: Down regulation of hypothetical protein (gi68067763) in Plasmodium berghei NK-65 infected in ICR mouse at 50 mg/kg, po administered 4 days post-infection measured after 18 hrs in the host blood by 2D-gel electrophoresis; type: functional, organism-based; set-up: dose 50 mg/kg
Plasmodium berghei [2] = assay: Antimalarial activity against Plasmodium berghei NK-65 infected in ICR mouse assessed as parasitemia at 50 mg/kg, po administered 4 days post-infection measured after 18 hrs (reference value: 30 to 40%); type: functional
Plasmodium berghei [3] = assay: Down regulation of heat shock protein (gi68071723) in Plasmodium berghei NK-65 infected in ICR mouse at 50 mg/kg, po administered 4 days post-infection measured after 18 hrs in the host blood by 2D-gel electrophoresis; type: functional, organism-based; set-up: dose 50 mg/kg
Plasmodium berghei [4] = assay: Down regulation of […] precursor in Plasmodium berghei NK-65 infected in ICR mouse at 50 mg/kg, po administered 4 days post-infection measured after 18 hrs in the host blood by 2D-gel electrophoresis; type: functional, organism-based; set-up: dose 50 mg/kg
Plasmodium berghei [5] = assay: Down regulation of hypothetical protein (gi68064486) in Plasmodium berghei NK-65 infected in ICR mouse at 50 mg/kg, po administered 4 days post-infection measured after 18 hrs in the host blood by 2D-gel electrophoresis; type: functional, organism-based; set-up: dose 50 mg/kg
Mus musculus [6] = assay: Down regulation of beta-actin in ICR mouse infected with Plasmodium berghei NK-65 at 50 mg/kg, po administered 4 days post-infection measured after 18 hrs in host blood by 2D-gel electrophoresis; type: functional, organism-based; set-up: dose 50 mg/kg
Mus musculus [7] = assay: Up regulation of unnamed protein product (gi74005074) in ICR mouse infected with Plasmodium berghei NK-65 at 50 mg/kg, po administered 4 days post-infection measured after 18 hrs in host blood by 2D-gel electrophoresis; type: functional, organism-based; set-up: dose 50 mg/kg
Mus musculus [8] = assay: Up regulation of unnamed protein product (gi74220592) in ICR mouse infected with Plasmodium berghei NK-65 at 50 mg/kg, po administered 4 days post-infection measured after 18 hrs in host blood by 2D-gel electrophoresis; type: functional, organism-based; set-up: dose 50 mg/kg
Plasmodium berghei [9] = assay: Down regulation of berghepain-2 in Plasmodium berghei NK-65 infected in ICR mouse at 50 mg/kg, po administered 4 days post-infection measured after 18 hrs in the host blood by 2D-gel electrophoresis; type: functional, organism-based; set-up: dose 50 mg/kg

## CCN(CC)c1ccc2nc3c4ccccc4/c(=N/c4ccncc4)cc-3oc2c1.Cl
Plasmodium berghei [1]
  Activity: Active
Plasmodium berghei [2]
  Activity: 20%
Plasmodium berghei [3]
  Activity: Active
Plasmodium berghei [4]
  Activity: Active
Plasmodium berghei [5]
  Activity: Active
Mus musculus [6]
  Activity: Active
Mus musculus [7]
  Activity: Active
Mus musculus [8]
  Activity: Active
Plasmodium berghei [9]
  Activity: Active
